Measured values reported in PubChem BioAssay AID248 (DTP/NCI, 2004).
Toxic doses and inconclusive results are not listed. No stated cut-off is given here; in the data, active means T/C of 150% or more; inactive means T/C below 125%.

Test system: L1210 leukemia ip in BDF1 mice, survival T/C
Assay: NCI In Vivo Anticancer Drug Screen. Data for tumor model L1210 Leukemia (intraperitoneal) in B6D2F1 (BDF1) mice
Settings: endpoint: mean survival time, higher = longer survival
Procedure, shortened: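 Read-out is survival time, reported as the treated-group measurement over the vehicle-control measurement.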

[1] = dose: 100.0 mg/kg/injection, schedule: Q01DX001 (ip), vehicle: saline
[2] = dose: 200.0 mg/kg/injection, schedule: Q01DX001 (ip), vehicle: saline
[3] = dose: 400.0 mg/kg/injection, schedule: Q01DX001 (ip), vehicle: saline
[4] = dose: 50.0 mg/kg/injection, schedule: Q01DX001 (ip), vehicle: saline
[5] = dose: 100.0 mg/kg/injection, schedule: Q01DX001 (ip), vehicle: saline with Tween-80
[6] = dose: 400.0 mg/kg/injection, schedule: Q01DX001 (ip), vehicle: saline with Tween-80
[7] = dose: 100.0 mg/kg/injection, schedule: Q01DX009 (ip), vehicle: Klucel (hydroxypropylcellulose) (HPC)
[8] = dose: 100.0 mg/kg/injection, schedule: Q04DX003 (ip), vehicle: Klucel (hydroxypropylcellulose) (HPC)
[9] = dose: 200.0 mg/kg/injection, schedule: Q01DX009 (ip), vehicle: Klucel (hydroxypropylcellulose) (HPC)
[10] = dose: 200.0 mg/kg/injection, schedule: Q04DX003 (ip), vehicle: Klucel (hydroxypropylcellulose) (HPC)
[11] = dose: 400.0 mg/kg/injection, schedule: Q01DX009 (ip), vehicle: Klucel (hydroxypropylcellulose) (HPC)
[12] = dose: 400.0 mg/kg/injection, schedule: Q04DX003 (ip), vehicle: Klucel (hydroxypropylcellulose) (HPC)

Measured: T/C

O=C1C=CC(=O)N1c1ccc([N+](=O)[O-])cc1
inactive: dose: 0.78 mg/kg/injection, schedule: Q04DX003 (ip), vehicle: Klucel (hydroxypropylcellulose) (HPC) 107 % of control | dose: 1.56 mg/kg/injection, schedule: Q01DX009 (ip), vehicle: Klucel (hydroxypropylcellulose) (HPC) 97 % of control | dose: 1.56 mg/kg/injection, schedule: Q04DX003 (ip), vehicle: Klucel (hydroxypropylcellulose) (HPC) 93 % of control | dose: 3.12 mg/kg/injection, schedule: Q01DX009 (ip), vehicle: Klucel (hydroxypropylcellulose) (HPC) 92 % of control | dose: 3.12 mg/kg/injection, schedule: Q04DX003 (ip), vehicle: Klucel (hydroxypropylcellulose) (HPC) 91 % of control | dose: 6.25 mg/kg/injection, schedule: Q01DX009 (ip), vehicle: Klucel (hydroxypropylcellulose) (HPC) 92 % of control | dose: 6.25 mg/kg/injection, schedule: Q04DX003 (ip), vehicle: Klucel (hydroxypropylcellulose) (HPC) 92 % of control | dose: 9.2 mg/kg/injection, schedule: Q01DX009 (ip), vehicle: Klucel (hydroxypropylcellulose) (HPC) 92 % of control | dose: 14.0 mg/kg/injection, schedule: Q01DX009 (ip), vehicle: Klucel (hydroxypropylcellulose) (HPC) 90 % of control | dose: 21.0 mg/kg/injection, schedule: Q01DX009 (ip), vehicle: Klucel (hydroxypropylcellulose) (HPC) 95 % of control

COc1cc(C=C(C(C)=O)C(C)=O)ccc1O
inactive: dose: 100.0 mg/kg/injection, schedule: Q04DX003 (ip), vehicle: saline with Tween-80 112 % of control | dose: 200.0 mg/kg/injection, schedule: Q04DX003 (ip), vehicle: saline with Tween-80 109 % of control

OC1COC(n2cnc3c(=S)nc[nH]c32)CC1O (stereo not drawn)
inactive: dose: 5.0 mg/kg/injection, schedule: Q01DX001 (ip), vehicle: saline 100 % of control | dose: 10.0 mg/kg/injection, schedule: Q01DX001 (ip), vehicle: saline 103 % of control | dose: 20.0 mg/kg/injection, schedule: Q01DX001 (ip), vehicle: saline 100 % of control | dose: 40.0 mg/kg/injection, schedule: Q01DX001 (ip), vehicle: saline 95 % of control | [1] 107 % of control | [2] 108 % of control | [3] 124 % of control

Cc1ccc(C(c2ccc(C)c(C)c2)C(c2ccc(C)c(C)c2)C(O)C(O)C(O)CO)cc1C (stereo not drawn)
inactive: [4] 93 % of control | [1] 106 % of control | [2] 98 % of control | [3] 98 % of control

c1ccc2c(c1)NC(SSC1Nc3ccccc3S1)S2 (stereo not drawn)
inactive: [1] 94 % of control | [2] 88 % of control | [3] 94 % of control

CCCCCCCCCCCC(=O)[O][Hg][c]1ccccc1
inactive: dose: 75.0 mg/kg/injection, schedule: Q01DX001 (ip), vehicle: other 91 % of control

C(=C/[PH+](c1ccccc1)c1ccccc1)/[PH+](c1ccccc1)c1ccccc1.C(=C/[PH+](c1ccccc1)c1ccccc1)/[PH+](c1ccccc1)c1ccccc1.[O-][Cl+3]([O-])([O-])O.[Rh]
inactive: [5] 92 % of control | [6] 89 % of control

CN(C)c1ccc(Cc2ccc(N(C)C)cc2[N+](=O)[O-])cc1
inactive: [7] 102 % of control | [8] 96 % of control | [9] 93 % of control | [10] 96 % of control | [11] 95 % of control | [12] 101 % of control

O=C(O)/C(=C\CCCCCC/C=C(\CCO)C(=O)O)CCO
inactive: [7] 98 % of control | [8] 96 % of control | [9] 91 % of control | [10] 93 % of control | [11] 89 % of control | [12] 93 % of control

Cc1ccc(CN=C(N)CSS(=O)(=O)O)cc1C
inactive: dose: 100.0 mg/kg/injection, schedule: Q04DX002 (ip), vehicle: Klucel (hydroxypropylcellulose) (HPC) 97 % of control | dose: 200.0 mg/kg/injection, schedule: Q04DX002 (ip), vehicle: Klucel (hydroxypropylcellulose) (HPC) 101 % of control

OCC1CC(n2cnc3c(=S)nc[nH]c32)C(O)C1O (stereo not drawn)
inactive: [4] 96 % of control | [1] 96 % of control | [2] 96 % of control

C(#CP(c1ccccc1)c1ccccc1)c1ccccc1
inactive: [8] 93 % of control | [10] 97 % of control | [12] 95 % of control

CCCCN(CCCC)CCCCCN
inactive: dose: 25.0 mg/kg/injection, schedule: Q01DX Z (ip), vehicle: carboxymethylcellulose (CMC) 106 % of control | dose: 50.0 mg/kg/injection, schedule: Q01DX Z (ip), vehicle: carboxymethylcellulose (CMC) 86 % of control | dose: 100.0 mg/kg/injection, schedule: Q01DX Z (ip), vehicle: carboxymethylcellulose (CMC) 90 % of control

O=C(c1ccccc1)C1C2C=CC(C2)C1C(=O)c1ccccc1 (stereo not drawn)
inactive: [7] 94 % of control | [8] 108 % of control | [9] 107 % of control | [10] 97 % of control | [11] 93 % of control | [12] 100 % of control

CCCCCCCCCCCCCCCCCCSC(=N)N
inactive: dose: 12.5 mg/kg/injection, schedule: Q01DX009 (ip), vehicle: saline with Tween-80 101 % of control | dose: 25.0 mg/kg/injection, schedule: Q01DX009 (ip), vehicle: saline with Tween-80 98 % of control | dose: 50.0 mg/kg/injection, schedule: Q01DX009 (ip), vehicle: saline with Tween-80 95 % of control | dose: 100.0 mg/kg/injection, schedule: Q01DX009 (ip), vehicle: saline with Tween-80 100 % of control

CN(C)c1ccc(/C=N/NC(=O)c2cnc3ccccc3c2)cc1
inactive: dose: 100.0 mg/kg/injection, schedule: Q04DX002 (ip), vehicle: saline with Tween-80 102 % of control | dose: 200.0 mg/kg/injection, schedule: Q04DX002 (ip), vehicle: saline with Tween-80 97 % of control | dose: 400.0 mg/kg/injection, schedule: Q04DX002 (ip), vehicle: saline with Tween-80 94 % of control

O=C1c2ccccc2C(=O)N1Cc1ncn[nH]1
inactive: [5] 100 % of control | dose: 200.0 mg/kg/injection, schedule: Q01DX001 (ip), vehicle: saline with Tween-80 96 % of control | [6] 91 % of control
